Columns and labels:
[1] = Stability towards nucleases: blood; assay type: in vitro ADME; conditions: 75 μg of oligomer, lysed blood, nuclease buffer, 37° C., 3 hours; note: key: '+' denotes stability; no enzymic degradation
Description: (§1) Cell extracts from T-lymphocytes and blood were also employed for the stability investigations in addition to the purified, defined nucleases. For this purpose, 50 ml of cell suspension were centrifuged down at 2000 rpm, taken up in 500 μl of Tris/HCl buffer, pH 7.5; 40 mM CaCl2, and lysed with 5 μl of 20% SDS. Following dialysis against 0.1 M Tris/HCl, pH 7.5; 40 mM CaCl2, and a change of buffer after 4 hours, 5 μl were employed directly in the test. Blood was employed directly following lysis with doubly distilled H2 O. A 25mer oligonucleotide diester was employed as the positive control for digestion by the nucleases.
(§2) Subsequently, the gel was analysed by UV shadowing. […] The oligomers are stable towards the nucleases and cell extracts which were tested.

[2] = Stability towards nucleases: T-lymphocyte extract; assay type: in vitro ADME; conditions: 75 μg of oligomer, nuclease buffer, 37° C., 3 hours; note: key: '+' denotes stability; no enzymic degradation
Description: as §1, §2

[3] = Stability of nucleic acid-binding oligomers towards proteases and nucleases (overall statements); assay type: in vitro ADME; conditions: 37° C., 3 hours
Description: For this purpose, the nucleic acid-binding oligomers were treated-with non-specific and specific proteases, such as, for example, pronase E, proteinase K, trypsin, endoprotease Lys.C, V8 protease, protease IX and protease XXI, nucleases, such as, for example, S1 nuclease and Ba131 nuclease, phosphodiesterase, and cell extracts and organ extracts and blood serum and blood extracts which contain various nucleases and proteases. The oligomers were examined for degradation by polyacrylamide gel electrophoresis and UV shadowing on TLC plates containing UV indicator and by silver-staining the polyacrylamide gels.
Cell extracts from T lymphocytes and blood were also employed for the stability investigations in addition to the purified, defined proteases. For this purpose, 50 ml of cell suspension were centrifuged down at 2000 rpm, taken up in 500 μl of Tris/HCl buffer, pH 7.5; 40 mM CaCl2, and lysed with 5 μl of 20% SDS. Following dialysis against 0.1 M Tris/HCl, pH 7.5; 40 mM CaCl2, and a change of buffer after 4 hours, 5 μl were employed directly in the test. Blood was lysed directly with doubly distilled H2 O and 5 μl were then employed in the test. Bovine serine albumin (BSA) and lysozyme were used as positive controls for digestion by the proteases. […]

[4] = Stability towards proteases: blood extract; assay type: in vitro ADME; conditions: 75 μg of oligomer, 5 μl of lysed blood, protease buffer, 37° C., 3 hours; note: key: '+' denotes stability; no enzymic degradation
Description: (§3) Cell extracts from T lymphocytes and blood were also employed for the stability investigations in addition to the purified, defined proteases. For this purpose, 50 ml of cell suspension were centrifuged down at 2000 rpm, taken up in 500 μl of Tris/HCl buffer, pH 7.5; 40 mM CaCl2, and lysed with 5 μl of 20% SDS. Following dialysis against 0.1 M Tris/HCl, pH 7.5; 40 mM CaCl2, and a change of buffer after 4 hours, 5 μl were employed directly in the test. Blood was lysed directly with doubly distilled H2 O and 5 μl were then employed in the test. Bovine serine albumin (BSA) and lysozyme were used as positive controls for digestion by the proteases.
(§4) Subsequently, the gel was analysed by UV shadowing.

Bal31 nuclease = assay: Stability towards nucleases: Bal31 nuclease; assay type: in vitro ADME; conditions: 75 μg of oligomer, 5 μl of nuclease (40 units), 37° C., 3 hours; PAGE, UV shadowing; note: key: '+' denotes stability; no enzymic degradation
Description: as §2

Protease IX = assay: Stability towards proteases: Protease IX; assay type: in vitro ADME; conditions: 75 μg of oligomer, 5 μl of protease, 37° C., 3 hours; PAGE, UV shadowing, silver staining; note: key: '+' denotes stability; no enzymic degradation
Description: as §4

Pronase E = assay: Stability towards proteases: Pronase E; assay type: in vitro ADME; conditions: 75 μg of oligomer, 5 μl of protease, 37° C., 3 hours; PAGE, UV shadowing, silver staining; note: key: '+' denotes stability; no enzymic degradation
Description: as §4

[5] = Stability towards proteases: extracts of T-lymphocyte cells; assay type: in vitro ADME; conditions: 75 μg of oligomer, 5 μl of extract, protease buffer, 37° C., 3 hours; note: key: '+' denotes stability; no enzymic degradation
Description: as §3, §4

Proteinase K = Proteinase K (Parengyodontium album, UniProt P06873); assay: Stability towards proteases: Proteinase K; assay type: in vitro ADME; conditions: 75 μg of oligomer, 5 μl of protease, 37° C., 3 hours; PAGE, UV shadowing, silver staining; note: key: '+' denotes stability; no enzymic degradation
Description: as §4

Endoprotease LYS--C = Endoprotease LYS--C (Lysobacter enzymogenes, UniProt Q7M135); assay: Stability towards proteases: Endoprotease LYS--C; assay type: in vitro ADME; conditions: 75 μg of oligomer, 5 μl of protease, 37° C., 3 hours; PAGE, UV shadowing, silver staining; note: key: '+' denotes stability; no enzymic degradation
Description: as §4

Trypsin = assay: Stability towards proteases: Trypsin; assay type: in vitro ADME; conditions: 75 μg of oligomer, 5 μl of protease, 37° C., 3 hours; PAGE, UV shadowing, silver staining; note: key: '+' denotes stability; no enzymic degradation
Description: as §4

S1 nuclease = target: T1, S1 nuclease (Aspergillus oryzae, UniProt P24021); assay: Stability towards nucleases: S1 nuclease; assay type: in vitro ADME; conditions: 75 μg of oligomer, 5 μl of nuclease (40 units), 37° C., 3 hours; PAGE, UV shadowing; note: key: '+' denotes stability; no enzymic degradation
T1 sequence (P24021 21-287): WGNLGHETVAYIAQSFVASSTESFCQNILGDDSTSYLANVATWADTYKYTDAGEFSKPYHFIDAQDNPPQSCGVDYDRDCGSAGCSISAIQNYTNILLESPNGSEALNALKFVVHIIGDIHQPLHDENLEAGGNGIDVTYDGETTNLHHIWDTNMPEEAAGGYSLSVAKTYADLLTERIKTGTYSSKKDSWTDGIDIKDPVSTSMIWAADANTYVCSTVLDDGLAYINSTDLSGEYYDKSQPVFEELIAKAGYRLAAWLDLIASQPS
Description: as §2

Protease XXI = assay: Stability towards proteases: Protease XXI; assay type: in vitro ADME; conditions: 75 μg of oligomer, 5 μl of protease, 37° C., 3 hours; PAGE, UV shadowing, silver staining; note: key: '+' denotes stability; no enzymic degradation
Description: as §4

[6] = system: double-stranded plasmid DNA containing two poly-adenine sequence regions; assay: Strand displacement in double-stranded plasmid DNA; conditions: S1 nuclease digestion at high salt concentrations
Description: Double-stranded, circular plasmid DNA, which is of 4880 base pairs in length and which contains two poly-adenine sequence regions having at least nine consecutive adenine nucleotides, which sequence regions are at a distance apart of 1150 base pairs, is used in the tests described here.
Subsequently, 4 μl of buffer (250 mM Na acetate, 1 M NaCl, 2.5% glycerol, 5 mM ZnCl2, pH 4.4) were added to all the samples while 1 μl of S1 nuclease from Aspergillus oryzae (from Boehringer Mannheim), having an activity of 10 U/μl, was added to each of samples 2 to 6. After having been incubated at 30° C. for 15 minutes, the samples were placed on ice, 1 μl of 0.5 M EDTA and 3 μl of loading buffer (50% glycerol, 0.25% bromophenol blue in 40 mM Tris/HCl, 20 mM sodium acetate, 1 mM EDTA, pH=7.2) were added, and, without delay, the samples were fractionated electrophoretically on 1.2% agarose gels and, after staining with ethidium bromides, the sizes of the resulting plasmid fragments on the gel were determined by comparison with a molecular weight standard (1-kb ladder, from Gibco-BRL, D-7514 Eggenstein) on a transilluminator using 254 nm UV light.

Chain of Proteinase K (P06873 106-384): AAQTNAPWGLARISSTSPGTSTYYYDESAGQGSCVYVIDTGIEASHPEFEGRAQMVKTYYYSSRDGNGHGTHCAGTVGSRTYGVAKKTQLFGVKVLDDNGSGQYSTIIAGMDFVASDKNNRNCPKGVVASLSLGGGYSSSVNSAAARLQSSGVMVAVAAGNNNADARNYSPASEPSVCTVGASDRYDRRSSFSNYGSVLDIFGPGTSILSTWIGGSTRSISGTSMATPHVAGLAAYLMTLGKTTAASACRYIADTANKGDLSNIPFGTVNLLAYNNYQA
Chain of Endoprotease LYS--C (Q7M135 whole entry): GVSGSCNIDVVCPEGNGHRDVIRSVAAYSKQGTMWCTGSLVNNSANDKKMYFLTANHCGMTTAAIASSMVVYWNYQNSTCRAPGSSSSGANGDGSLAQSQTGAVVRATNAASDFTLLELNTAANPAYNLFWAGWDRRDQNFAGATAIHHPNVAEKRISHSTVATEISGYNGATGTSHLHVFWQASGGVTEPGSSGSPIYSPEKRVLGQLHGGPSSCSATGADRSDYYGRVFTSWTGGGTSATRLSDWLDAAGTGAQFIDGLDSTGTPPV

Row | Substance | Stability towards blood, nuclease test [1] | Stability towards T-lymphocyte extract, nuclease test [2] | Stability towards the proteases and cell extracts which were tested [3] | Stability towards extract of blood, protease test [4] | Stability towards Bal31 nuclease (Bal31 nuclease) | Stability towards Protease IX (Protease IX) | Stability towards Pronase E (Pronase E) | Stability towards extracts of T-lymphocyte cells (HUT, U 937), protease test [5] | Stability towards Proteinase K (Proteinase K) | Stability towards Endoprotease LYS--C (Endoprotease LYS--C) | Stability towards Trypsin (Trypsin) | Stability towards S1 nuclease (S1 nuclease) | Stability towards Protease XXI (Protease XXI) | Binding to double-stranded DNA (strand displacement), result in words [6]
1 | H--(III T)8 --Ala--OH [H-(IIIT)8 -Ala--OH] | + | + | stable | + | + | + | + | + | + | + | + | + | + | 
2 | H--(III T)12 --Lys--OH [H-(IIIT)12 -Lys--OH] | + | + | stable | + | + | + | + | + | + | + | + | + | + | concentration-dependent and sequence-selective binding
